In patent US8933228B2, “Respiratory formulations and compounds for use therein” (Respivert, Ltd., priority 2010, dated 2015):

Legend:
[1] = system: Differentiated U937 cells; experiment: MTT assay: cell viability; assay type: cell-based, human; details: 1 μg/ml; for d-U937 MTT Assay 4 h: 5% FCS; for d-U937 MTT Assay 24 h: 10% FCS
Procedure, shortened: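 Differentiated U937 cells pre-incubated with compound either 4 hr in 5% FCS or 24 h in 10% FCS, then 1 hr MTT. Formazan dissolved in DMSO, absorbance at 550 nm. Percentage viability loss relative to 0.5% DMSO vehicle; apparent increases appear as negative percentages.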

p38 MAPK alpha (MAPK14) = p38 MAPK alpha (MAPK14) (Homo sapiens (Human), UniProt Q16539); experiment: Enzyme inhibition assay (FRET, Z-LYTE), p38 MAPK alpha via MAPKAP-K2 activation; assay type: biochemical; details: read-out: Enzyme Profile: IC50 Values p38α
Procedure, shortened: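 Recombinant p38 MAPKα was preincubated with compound 2 hr at RT. Its activity was measured indirectly through MAPKAP-K2 activation/phosphorylation, read by Z-LYTE FRET after 1 hr protease development. Phosphorylation was taken from the coumarin/fluorescein emission ratio.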

[2] = system: TNFα release in THP-1 cells; experiment: LPS-induced TNFα release in THP-1 cells; assay type: cell-based; details: Homo sapiens; THP-1 cells, LPS 3 μg/mL, 4 hr; read-out: THP1 (LPS) TNFα IC50
Method: The inhibition of TNFα production was calculated at each concentration by comparison with vehicle control.

[3] = system: ICAM-1 expression in BEAS2B cells; experiment: Poly I:C-induced ICAM-1 induction in BEAS2B cells; assay type: cell-based; details: Homo sapiens, BEAS-2B; BEAS2B cells, poly I:C 1 μg/mL, 18 hr; read-out: BEAS2B (polyIC) ICAM1 IC50
Procedure, shortened: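 Human bronchial epithelial BEAS2B cells pre-incubated 2 hr with test compounds at final concentrations, then transfected with poly I:C (1 μg/mL) using Oligofectamine. Cell-surface ICAM-1 quantified by cell-based ELISA with HRP-conjugated anti-rabbit IgG secondary.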

p38 MAPK γ (MAPK12) = p38 MAPK γ (MAPK12) (Homo sapiens (Human), UniProt P53778); experiment: Enzyme inhibition assay (FRET, Z-LYTE), p38 MAPK gamma; assay type: biochemical; details: read-out: Enzyme Profile: IC50 Values p38γ
Procedure, shortened: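 Recombinant phosphorylated human p38γ preincubated with compound 2 hr at RT in HEPES buffer, then reacted 1 hr with 2 μM FRET peptide and 100 μM ATP. Protease development 1 hr; phosphorylation derived from coumarin/fluorescein emission ratio.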

HRV16 = experiment: Rhinovirus-titre assay; assay type: cell-based, human rhinovirus; details: HRV16; for inhibition at 0.04 µg/mL: Human rhinovirus sp., cell not marked b, test compounds 0.04 μg/mL per method (footnote b, 0.2 μg/mL), read-out: HRV titre (inhibitory %): % inhibition observed vs. HRV16 infection control
HCK enzyme = HCK enzyme (Homo sapiens (Human), UniProt P08631); experiment: HCK enzyme inhibition assay (FRET, Z'-LYTE); assay type: biochemical; details: read-out: Enzyme Profile: IC50 Values HCK
cSrc enzyme = cSrc enzyme (Homo sapiens (Human), UniProt P12931); experiment: c-SRC enzyme inhibition assay (FRET, Z'-LYTE); assay type: biochemical; details: read-out: Enzyme Profile: IC50 Values cSrc
[4] = system: TNFα release in d-U937 cells; experiment: LPS-induced TNFα release in d-U937 cells; assay type: cell-based; details: Homo sapiens, dU937, LPS 0.1 μg/mL, 4 hr, relative to 10 μg/mL BIRB796, read-out: d-U937 (LPS) TNFα REC50
Procedure, shortened: (§1)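 U937 cells made macrophage-like by 48–72 h with PMA (100 ng/mL), then stimulated with LPS (E. coli O111:B4) for 4 h. Supernatant TNFα and IL-8 measured by sandwich ELISA; inhibition versus vehicle control at each concentration, REC50 from concentration-response curve.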

[5] = system: IL-8 release in d-U937 cells; experiment: LPS-induced IL-8 release in d-U937 cells; assay type: cell-based; details: Homo sapiens, dU937; d-U937 cells, LPS 0.1 μg/mL, 4 hr; read-out: d-U937 (LPS) IL-8 IC50
Procedure, shortened: as §1

Row | Compound | IC50 (p38 MAPK alpha (MAPK14)) | IC50 [2] | IC50 (p38 MAPK γ (MAPK12)) | IC50 (HCK enzyme) | IC50 (cSrc enzyme) | EC50 [4] | IC50 [5] | d-U937 MTT Assay 4 h [1] | d-U937 MTT Assay 24 h [1] | IC50 [3] | inhibition at 0.04 µg/mL (HRV16) | NBEC (HRV) HRV titre Relative anti-viral activity (HRV16; at 0.04 μg/mL vs. pleconaril at 0.1 μg/mL)
1 | Cc1ccc(-n2nc(C(C)(C)C)cc2NC(=O)Nc2ccc(Oc3ncnc4[nH]c(=O)[nH]c34)c3ccccc23)cc1 [Example 15, 1-(3-(tert-Butyl)-1-(p-tolyl)-1H-pyrazol-5-yl)-3-(4-((8-oxo-8,9-dihydro-7H-purin-6-yl)oxy)naphthalen-1-yl)urea] | 30 nM | 126 nM | 539 nM | 36 nM | 35 nM | 33 nM | 164 nM | − (− and + indicate the result is below and above the no significant effect threshold, respectively (<30% inhibition at a concentration of 1 μg/ml)) | − (− and + indicate the result is below and above the no significant effect threshold, respectively (<30% inhibition at a concentration of 1 μg/ml)) | > 182 nM | 8% | 
2 | CC(C)(C)c1cc(NC(=O)Nc2ccc(Oc3ccnc4[nH]c(=O)cnc34)c3ccccc23)n(-c2ccc(O)cc2)n1 [Example 16, 1-(3-(tert-Butyl)-1-(4-hydroxyphenyl)-1H-pyrazol-5-yl)-3-(4-((3-oxo-3,4-dihydropyrido[2,3-b]pyrazin-8-yl)oxy)naphthalen-1-yl)urea] | 4 nM | 116 nM | 45 nM | 18 nM | 10 nM | 55 nM | 47 nM | − (− and + indicate the result is below and above the no significant effect threshold, respectively (<30% inhibition at a concentration of 1 μg/ml)) | − (− and + indicate the result is below and above the no significant effect threshold, respectively (<30% inhibition at a concentration of 1 μg/ml)) | 172 nM | 8% | 
3 | CC(C)(C)c1cc(NC(=O)Nc2ccc(Oc3ccnc4[nH]c(=O)cnc34)c3ccccc23)n(-c2ccc(CO)cc2)n1 [Example 17, 1-(3-(tert-Butyl)-1-(4-(hydroxymethyl)phenyl)-1H-pyrazol-5-yl)-3-(4-((3-oxo-3,4-dihydropyrido[2,3-b]pyrazin-8-yl)oxy)naphthalen-1-yl)urea] | 7 nM | 14 nM | 318 nM | 24 nM | 11 nM | 12 nM | 24 nM | − (− and + indicate the result is below and above the no significant effect threshold, respectively (<30% inhibition at a concentration of 1 μg/ml)) | − (− and + indicate the result is below and above the no significant effect threshold, respectively (<30% inhibition at a concentration of 1 μg/ml)) | 14 nM | 36% | 
4 | COc1cc(-n2nc(C(C)(C)C)cc2NC(=O)Nc2ccc(Oc3ccnc4[nH]c(=O)cnc34)c3ccccc23)ccc1CO [Example 18, 1-(3-(tert-Butyl)-1-(4-(hydroxymethyl)-3-methoxyphenyl)-1H-pyrazol-5-yl)-3-(4-((3-oxo-3,4-dihydropyrido[2,3-b]pyrazin-8-yl)oxy)naphthalen-1-yl)urea] | 5 nM | 17 nM | 24 nM | 5 nM | 6 nM | 12 nM | 7.4 nM | − (− and + indicate the result is below and above the no significant effect threshold, respectively (<30% inhibition at a concentration of 1 μg/ml)) | − (− and + indicate the result is below and above the no significant effect threshold, respectively (<30% inhibition at a concentration of 1 μg/ml)) | 15 nM | 80% | 
5 | COc1ccc(-n2nc(C(C)(C)C)cc2NC(=O)Nc2ccc(Oc3ncnc4[nH]c(=O)cnc34)c3ccccc23)cc1 [Example 22] | 17 nM | > 1730 nM | 2620 nM | 458 nM | 406 nM | > 1730 nM | > 1730 nM | − (− and + indicate the result is below and above the no significant effect threshold, respectively (<30% inhibition at a concentration of 1 μg/ml)) | − (− and + indicate the result is below and above the no significant effect threshold, respectively (<30% inhibition at a concentration of 1 μg/ml)) | > 173 nM | 8% | 
6 | COc1ccc(-n2nc(C(C)(C)C)cc2NC(=O)Nc2ccc(Oc3ccnc4[nH]c(=O)n(C)c34)c3ccccc23)cn1 [Example 24, 1-(3-(tert-butyl)-1-(6-methoxypyridin-3-yl)-1H-pyrazol-5-yl)-3-(4-((1-methyl-2-oxo-2,3-dihydro-1H-imidazo[4,5-b]pyridin-7-yl)oxy)naphthalen-1-yl)urea] | 7 nM | 4.4 nM | 126 nM | 5 nM | 16 nM | 1.3 nM | 11 nM | − (− and + indicate the result is below and above the no significant effect threshold, respectively (<30% inhibition at a concentration of 1 μg/ml)) | − (− and + indicate the result is below and above the no significant effect threshold, respectively (<30% inhibition at a concentration of 1 μg/ml)) | 12 nM | 91% | 

More lines, main results first:

Row | IC50 (p38 MAPK alpha (MAPK14)) | IC50 [2] | IC50 (p38 MAPK γ (MAPK12)) | IC50 (HCK enzyme) | IC50 (cSrc enzyme) | EC50 [4] | IC50 [5] | Compound | d-U937 MTT Assay 4 h [1] | d-U937 MTT Assay 24 h [1] | IC50 [3] | inhibition at 0.04 µg/mL (HRV16) | NBEC (HRV) HRV titre Relative anti-viral activity (HRV16; at 0.04 μg/mL vs. pleconaril at 0.1 μg/mL)
7 | 5 nM | 163 nM | 180 nM | < 2 nM | 0.8 nM | 166 nM | 726 nM | COc1ccc(-n2nc(C(C)(C)C)cc2NC(=O)Nc2ccc(Oc3ccnc4[nH]c(=O)[nH]c34)c3ncccc23)cc1 [Example 14, 1-(3-(tert-Butyl)-1-(4-methoxyphenyl)-1H-pyrazol-5-yl)-3-(8-((2-oxo-2,3-dihydro-1H-imidazo[4,5-b]pyridin-7-yl)oxy)quinolin-5-yl)urea] | − (− and + indicate the result is below and above the no significant effect threshold, respectively (<30% inhibition at a concentration of 1 μg/ml)) | − (− and + indicate the result is below and above the no significant effect threshold, respectively (<30% inhibition at a concentration of 1 μg/ml)) | 675 nM | 8% | 1.5
8 | 2 nM | 2.1 nM | 35 nM | 4 nM | 7 nM | 1.3 nM | 1.6 nM | COc1ccc(-n2nc(C(C)(C)C)cc2NC(=O)Nc2ccc(Oc3ccnc4[nH]c(=O)cnc34)c(Cl)c2Cl)cc1 [Example 19, 1-(3-(tert-Butyl)-1-(4-methoxyphenyl)-1H-pyrazol-5-yl)-3-(2,3-dichloro-4-((3-oxo-3,4-dihydropyrido[2,3-b]pyrazin-8-yl)oxy)phenyl)urea] | − (− and + indicate the result is below and above the no significant effect threshold, respectively (<30% inhibition at a concentration of 1 μg/ml)) | − (− and + indicate the result is below and above the no significant effect threshold, respectively (<30% inhibition at a concentration of 1 μg/ml)) | 0.6 nM | 80% | 
9 | 6 nM | 13 nM | 44 nM | 3 nM | 8 nM | 3.4 nM | 16 nM | COc1ccc(-n2nc(C(C)(C)C)cc2NC(=O)Nc2ccc(Oc3ccnc4[nH]c(=O)cnc34)c3ccccc23)cn1 [Example 20] | − (− and + indicate the result is below and above the no significant effect threshold, respectively (<30% inhibition at a concentration of 1 μg/ml)) | − (− and + indicate the result is below and above the no significant effect threshold, respectively (<30% inhibition at a concentration of 1 μg/ml)) | 21 nM | 36% | 
